Here are results for 7 compounds from patent US5871946A, “Method for determining activity of enzymes in metabolically active whole cells” (priority 1995, dated 1999).

Numbered stars: 1 amine (or outer) side, 2 acyl side, 3 side chain; on linkers, the order of the positions; unused ones are H or OH. Bridge positions count the residues as written; N and C are the ends. Peptide text beside a SMILES is read from it. I, II: the chains in the order shown. Rhodamine110 = O=C1OC2(c3ccc(N[*:1])cc3Oc3cc(N[*:2])ccc32)c2ccccc21

Experiment [1] relates to LYMPHOCYTES
The experiment is described as follows: Disease to normal ratio of enzyme activity, lymphocytes (Table 5). Type of experiment: cell-based, human. The source says:
(§1) A normal in house adult donor pool was drawn, recording sex and determining that no known disease state was present at the time of sample draw. Criteria for rejecting samples included patients under medication, patients with infection or inflammation of any type, colds and flu as well as any known medical illness such as cancer, heart ailment and high blood pressure. A donor list of 75 patients has been developed and a mean and 2 sd range established. A subgroup of "super normals" was developed from this list by examining the 75 patients to determine which group falls closest to the mean for all enzymes in all cell types tested. These patients were used as the "wellness index" or best group of "normalcy" patients. If a study required the use of children or newborns then this same format was used to develop a data base for these age groups.

In experiment [2] the test system is MONOCYTES
The experiment is described as follows: Disease to normal ratio of enzyme activity, monocytes (Table 5). The format is cell-based, human.
Excerpt: as §1

Where [3] appears, read: Inflam. Bowel Dis., monocytes section.

For the compound `C[C@H](N)C(=O)Nc1ccc2c(c1)Oc1cc(NC(=O)[C@H](C)N)ccc1C21OC(=O)c2ccccc21` [ALA, (Ala)2 Rho 110], the “Ratio of disease to normal” value in experiment [1] (Dermatomyositis) worked out at 1.16; in experiment [1] (Inflam. Bowel Dis.) it was 1.53; in experiment [1] (JRA), 1.59; in experiment [1] (Kawasaki's), 1.05; in experiment [1] (Lupus), 1.16; in experiment [1] (Rheumatic Fever), 1.18. For the same compound, the “Ratio of disease to normal” value in experiment [2] (setting [3]) was found to be 1.43; in experiment [2] (JRA, monocytes) it was 1.31; in experiment [2] (Kawasaki's, monocytes), 1.36; in experiment [2] (Lupus, monocytes), 6.17; in experiment [2] (Rheumatic Fever, monocytes), 1.08.

Turning to `O=C1OC2(c3ccc(OP(=O)(O)O)cc3Oc3cc(OP(=O)(O)O)ccc32)c2ccccc21` [DPO4, (PO4)2 fluorescein], the “Ratio of disease to normal” value in experiment [2] (JRA, monocytes) is given as 1.13; in experiment [2] (Rheumatic Fever, monocytes), 1.09.

Turning to `CC(=O)Oc1ccc2c(c1)Oc1cc(OC(C)=O)ccc1C21OC(=O)c2ccccc21` [FDA, fluorescein diacetate, reference compound], the “Ratio of disease to normal” value in experiment [1] (Dermatomyositis) was found to be 1.06; in experiment [1] (JRA), 1.17; in experiment [1] (Lupus), 1.01; in experiment [2] (JRA, monocytes), 1.55; in experiment [2] (Lupus, monocytes), 1.01.

Regarding `CC(=O)Oc1ccc2c(c1)Oc1cc(OC(C)=O)ccc1C21OC(=O)c2ccccc21` [FDA-NAF, reference compound], the “Ratio of disease to normal” value in experiment [1] (Dermatomyositis) is on record as 1.14; in experiment [1] (Inflam. Bowel Dis.), 0.89; in experiment [1] (JRA) it was 0.21; in experiment [1] (Kawasaki's), 0.30; in experiment [1] (Lupus) it was 0.74; in experiment [1] (Rheumatic Fever) it was 0.97. Besides, the “Ratio of disease to normal” value in experiment [2] (Dermatomyositis, monocytes) was 1.03; in experiment [2] (setting [3]), 1.11; in experiment [2] (JRA, monocytes), 0.35; in experiment [2] (Kawasaki's, monocytes), 0.58; in experiment [2] (Lupus, monocytes) it was 0.83; in experiment [2] (Rheumatic Fever, monocytes), 0.89.

In the case of `C[C@H](NC(=O)CNC(=O)[C@H](Cc1ccccc1)NC(=O)CN)C(=O)Nc1ccc2c(c1)Oc1cc(NC(=O)[C@H](C)NC(=O)CNC(=O)[C@H](Cc3ccccc3)NC(=O)CN)ccc1C21OC(=O)c2ccccc21` [GFGA, (Gly-Phe-Gly-Ala)2 Rho 110] (I: H-GFGA / II: H-GFGA; linker I:C-II:C via Rhodamine110), the “Ratio of disease to normal” value in experiment [1] (Dermatomyositis) is reported as 2.14; in experiment [1] (Inflam. Bowel Dis.), 2.16; in experiment [1] (JRA), 2.03; in experiment [1] (Kawasaki's), 2.15; in experiment [1] (Lupus), 1.25; in experiment [1] (Rheumatic Fever) it was 2.14. Besides, the “Ratio of disease to normal” value stood at 2.01 in experiment [2] (Dermatomyositis, monocytes); 3.42 in experiment [2] (setting [3]); 2.29 in experiment [2] (JRA, monocytes); 1.77 in experiment [2] (Kawasaki's, monocytes); 2.18 in experiment [2] (Lupus, monocytes); 1.36 in experiment [2] (Rheumatic Fever, monocytes).

In the case of `NCC(=O)Nc1ccc2c(c1)Oc1cc(NC(=O)CN)ccc1C21OC(=O)c2ccccc21` [GLY, (Gly)2 Rho 110], the “Ratio of disease to normal” value in experiment [1] (Inflam. Bowel Dis.) amounted to 1.97; in experiment [1] (Kawasaki's) it was 1.94; in experiment [1] (Lupus), 1.64; in experiment [1] (Rheumatic Fever), 2.09; in experiment [2] (Dermatomyositis, monocytes), 1.01; in experiment [2] (setting [3]) it was 1.84. The “Ratio of disease to normal” value in experiment [2] (JRA, monocytes) is on record as 1.11; in experiment [2] (Kawasaki's, monocytes), 3.83; in experiment [2] (Rheumatic Fever, monocytes) it was 2.06.

In the case of `C[C@H](NC(=O)[C@@H](N)CCCCN)C(=O)Nc1ccc2c(c1)Oc1cc(NC(=O)[C@H](C)NC(=O)[C@@H](N)CCCCN)ccc1C21OC(=O)c2ccccc21` [KA, (Lys-Ala)2 Rho 110], the “Ratio of disease to normal” value in experiment [1] (Dermatomyositis) was 1.39; in experiment [1] (Inflam. Bowel Dis.) it was 1.75; in experiment [1] (Kawasaki's) it was 1.53; in experiment [1] (Lupus), 1.93; in experiment [1] (Rheumatic Fever), 1.19; in experiment [2] (Dermatomyositis, monocytes) it was 1.04. Moreover, the “Ratio of disease to normal” value stood at 1.95 in experiment [2] (setting [3]); 2.22 in experiment [2] (Kawasaki's, monocytes); 6.93 in experiment [2] (Lupus, monocytes); 2.39 in experiment [2] (Rheumatic Fever, monocytes).
